In ChEMBL document CHEMBL3044672, “N9- and N7-(Chloromethyl Phenymethyl)Chloropurine Derivatives from , '-Dichloroxylenes: Synthesis and Anticancer Activity” (2005):

How the values were obtained:
Assay type in all cases: functional
[1] = system: SK-OV-3; test: Cytotoxicity against Homo sapiens (human) SKOV3 cells after 48 hr by sulforhodamine B assay; conditions: SK-OV-3, 48 h
[2] = system: OVCAR-4; test: Cytotoxicity against Homo sapiens (human) OVCAR4 cells after 48 hr by sulforhodamine B assay; conditions: OVCAR-4, 48 h
[3] = system: UACC-62; test: Cytotoxicity against Homo sapiens (human) UACC62 cells after 48 hr by sulforhodamine B assay; conditions: UACC-62, 48 h
[4] = system: UACC-257; test: Cytotoxicity against Homo sapiens (human) UACC257 cells after 48 hr by sulforhodamine B assay; conditions: UACC-257, 48 h
[5] = system: LOX IMVI; test: Cytotoxicity against Homo sapiens (human) LOXIMVI cells after 48 hr by sulforhodamine B assay
[6] = system: SNB-75; test: Cytotoxicity against Homo sapiens (human) SNB75 cells after 48 hr by sulforhodamine B assay; conditions: SNB-75, 48 h; for CC50: read-out: LC50 (the source's name)
[7] = system: Hs-578T; test: Cytotoxicity against Homo sapiens (human) Hs 578T cells after 48 hr by sulforhodamine B assay
[8] = Cytotoxicity against Homo sapiens (human) NCI-ADR-RES cells after 48 hr by sulforhodamine B assay
[9] = system: MDA-MB-231; test: Cytotoxicity against Homo sapiens (human) MDA-MB-231 cells after 48 hr by sulforhodamine B assay; conditions: MDA-MB-231, 48 h
[10] = system: TK-10; test: Cytotoxicity against Homo sapiens (human) TK10 cells after 48 hr by sulforhodamine B assay; conditions: TK-10, 48 h; for CC50: read-out: LC50 (the source's name)
[11] = system: RXF 393; test: Cytotoxicity against Homo sapiens (human) RXF393 cells after 48 hr by sulforhodamine B assay; conditions: RXF 393, 48 h
[12] = system: SF-268; test: Cytotoxicity against Homo sapiens (human) SF268 cells after 48 hr by sulforhodamine B assay; conditions: SF-268, 48 h; for CC50: read-out: LC50 (the source's name)
[13] = system: KM12; test: Cytotoxicity against Homo sapiens (human) KM12 cells after 48 hr by sulforhodamine B assay; conditions: KM12, 48 h; for CC50: read-out: LC50 (the source's name)
[14] = system: HCT-15; test: Cytotoxicity against Homo sapiens (human) HCT15 cells after 48 hr by sulforhodamine B assay; conditions: HCT-15, 48 h; for CC50: read-out: LC50 (the source's name)
[15] = system: HCT-116; test: Cytotoxicity against Homo sapiens (human) HCT116 cells after 48 hr by sulforhodamine B assay; conditions: HCT-116, 48 h; for CC50: read-out: LC50 (the source's name)
[16] = system: HCC 2998; test: Cytotoxicity against Homo sapiens (human) HCC2998 cells after 48 hr by sulforhodamine B assay; conditions: HCC 2998, 48 h; for CC50: read-out: LC50 (the source's name)
[17] = system: COLO 205; test: Cytotoxicity against Homo sapiens (human) COLO205 cells after 48 hr by sulforhodamine B assay; conditions: COLO 205, 48 h; for CC50: read-out: LC50 (the source's name)
[18] = system: NCI-H522; test: Cytotoxicity against Homo sapiens (human) NCI-H522 cells after 48 hr by sulforhodamine B assay; conditions: NCI-H522, 48 h; for CC50: read-out: LC50 (the source's name)
[19] = system: NCI-H23; test: Cytotoxicity against Homo sapiens (human) NCI-H23 cells after 48 hr by sulforhodamine B assay; conditions: NCI-H23, 48 h; for CC50: read-out: LC50 (the source's name)
[20] = system: HOP-62; test: Cytotoxicity against Homo sapiens (human) HOP62 cells after 48 hr by sulforhodamine B assay; conditions: HOP-62, 48 h; for CC50: read-out: LC50 (the source's name)
[21] = system: A549; test: Cytotoxicity against Homo sapiens (human) A549 cells after 48 hr by sulforhodamine B assay; conditions: A549, 48 h; for CC50: read-out: LC50 (the source's name)
[22] = system: RPMI-8226; test: Cytotoxicity against Homo sapiens (human) RPMI8226 cells after 48 hr by sulforhodamine B assay; conditions: RPMI-8226, 48 h; for CC50: read-out: LC50 (the source's name)
[23] = system: MOLT-4; test: Cytotoxicity against Homo sapiens (human) MOLT4 cells after 48 hr by sulforhodamine B assay; conditions: MOLT-4, 48 h; for CC50: read-out: LC50 (the source's name)
[24] = system: K562; test: Cytotoxicity against Homo sapiens (human) K562 cells after 48 hr by sulforhodamine B assay; conditions: K562, 48 h; for CC50: read-out: LC50 (the source's name)
[25] = system: CCRF-CEM; test: Cytotoxicity against Homo sapiens (human) CCRF-CEM cells after 48 hr by sulforhodamine B assay; conditions: for CC50: read-out: LC50 (the source's name)
[26] = system: MCF7; test: Cytotoxicity against Homo sapiens (human) MCF7 cells assessed as cell growth at 10^-4 M after 48 hr by Alamar blue assay; conditions: MCF7, 48 h, read-out: Activity
[27] = system: NCI-H460; test: Cytotoxicity against Homo sapiens (human) NCI-H460 cells assessed as cell growth at 10^-4 M after 48 hr by Alamar blue assay; conditions: NCI-H460, 48 h, read-out: Activity

## ClCc1ccc(Cn2cnc3nc(Cl)nc(Cl)c32)cc1
[1]
  GI50: 2.34 µM
  LC50: 18.2 µM
  TGI: 5.01 µM
[2]
  GI50: 2.08 µM
  TGI: 4.16 µM
[3]
  GI50: 1.65 µM
  LC50 (concentration causing 50% net cell kill): 6.02 µM
  TGI: 3.16 µM
[4]
  GI50: 2.23 µM
  LC50 (concentration killing 50% of cells): 34.7 µM
  TGI: 5.49 µM
[5]
  GI50: 1.62 µM
  LC50: 6.45 µM
  TGI: 3.23 µM
[6]
  GI50: 2.08 µM
  TGI: 3.98 µM
  CC50: 7.41 µM
[7]
  GI50: 19.1 µM
  LC50: > 100 µM
  TGI: 44.7 µM
[8]
  GI50: 2.08 µM
  TGI: 4.46 µM
[9]
  GI50: 1.62 µM
  LC50: 6.02 µM
  TGI: 3.09 µM
[10]
  GI50: 0.12 µM
  TGI: 0.29 µM
  CC50: 0.72 µM
[11]
  GI50: 1.65 µM
  TGI: 3.98 µM
[12]
  GI50: 1.99 µM
  TGI: 3.98 µM
  CC50: 7.94 µM
[13]
  GI50: 0.26 µM
  TGI: 0.67 µM
  CC50: 2.45 µM
[14]
  GI50: 1.81 µM
  TGI: 3.54 µM
  CC50: 6.76 µM
[15]
  GI50: 0.12 µM
  TGI: 1.24 µM
  CC50: > 100 µM
[16]
  GI50: 2.04 µM
  TGI: 3.8 µM
  CC50: 7.07 µM
[17]
  GI50: 17.4 µM
  TGI: > 100 µM
  CC50: > 100 µM
[18]
  GI50: 1.77 µM
  TGI: 4.57 µM
  CC50: 38 µM
[19]
  GI50: 2.34 µM
  TGI: 4.57 µM
  CC50: 8.91 µM
[20]
  GI50: 1.9 µM
  TGI: 3.89 µM
  CC50: 7.94 µM
[21]
  GI50: 2.13 µM
  TGI: 4.07 µM
  CC50: 7.94 µM
[22]
  GI50: 1.65 µM
  TGI: 28.2 µM
  CC50: 97.7 µM
[23]
  GI50: 1.38 µM
  TGI: 5.49 µM
  CC50: > 100 µM
[24]
  GI50: 3.31 µM
  TGI: > 100 µM
  CC50: > 100 µM
[25]
  GI50: 14.8 µM
  TGI: 31.6 µM
  CC50: 66.1 µM
[26]
  growth at 100 µM: 1%
[27]
  growth at 100 µM: 0%

## Nc1nc(Cl)c2ncn(Cc3ccc(CCl)cc3)c2n1
[1]
  LC50: 64.5 µM
  TGI: 30.9 µM
[2]
  LC50 (concentration killing 50% of cells): 57.5 µM
  TGI: 30.2 µM
[3]
  LC50 (concentration causing 50% net cell kill): 53.7 µM
  TGI: 8.13 µM
[4]
  LC50 (concentration killing 50% of cells): > 100 µM
  TGI: 47.9 µM
[5]
  LC50: > 100 µM
  TGI: 43.6 µM
[6]
  TGI: 91.2 µM
  CC50: > 100 µM
[7]
  LC50: > 100 µM
  TGI: > 100 µM
[8]
  LC50 (concentration killing 50% of cells): > 100 µM
  TGI: 26.9 µM
[9]
  LC50: 91.2 µM
  TGI: 34.7 µM
[10]
  TGI: 40.7 µM
  CC50: 97.7 µM
[11]
  TGI: 7.24 µM
[11]; read-out: LC50 (the source's name)
  CC50: 35.5 µM
[12]
  TGI: 8.32 µM
  CC50: 38.9 µM
[13]
  TGI: 22.9 µM
  CC50: 57.5 µM
[14]
  TGI: 19.9 µM
  CC50: 67.6 µM
[15]
  TGI: 15 µM
  CC50: 56.2 µM
[16]
  TGI: 8.91 µM
  CC50: 75.9 µM
[17]
  TGI: 13.5 µM
  CC50: 42.7 µM
[18]
  GI50: 10.9 µM
  TGI: 25.7 µM
  CC50: 63.1 µM
[19]
  TGI: 30.2 µM
  CC50: 77.6 µM
[20]
  TGI: 27.5 µM
  CC50: 91.2 µM
[21]
  TGI: 75.9 µM
  CC50: > 100 µM
[22]
  TGI: > 100 µM
  CC50: > 100 µM
[23]
  TGI: > 100 µM
  CC50: > 100 µM
[24]
  TGI: > 100 µM
  CC50: > 100 µM
[25]
  TGI: > 100 µM
  CC50: > 100 µM
[26]
  growth at 100 µM: 0%
[27]
  growth at 100 µM: 0%
